Among the data in ChEMBL document CHEMBL4765443, “Covalent and noncovalent constraints yield a figure eight-like conformation of a peptide inhibiting the menin-MLL interaction” (Eur J Med Chem, 2020) are IC50 values, retold here.

Positions of bridges follow the written chain, without caps; N, C: chain ends. Non-standard residues stand in square brackets, D forms with d. Residues, ends and D or L forms follow the SMILES beside them. Phe(3-F) = N[C@@H](Cc1cccc(F)c1)C(=O)O; AllylGly = C=CC[C@H](N)C(=O)O; Ac4c = NC1(C(=O)O)CCC1

For assay [1], the target named is T1, Menin/Histone-lysine N-methyltransferase MLL (Homo sapiens, UniProt O00255). Description: Inhibition of Menin-MLL protein-protein interaction (unknown origin) preincubated for 1 hr in presence of FLSN-MLL4-43 peptide followed by compound addition and measured after 1 hr by fluorescence polarization assay.
T1 sequence (O00255 whole entry): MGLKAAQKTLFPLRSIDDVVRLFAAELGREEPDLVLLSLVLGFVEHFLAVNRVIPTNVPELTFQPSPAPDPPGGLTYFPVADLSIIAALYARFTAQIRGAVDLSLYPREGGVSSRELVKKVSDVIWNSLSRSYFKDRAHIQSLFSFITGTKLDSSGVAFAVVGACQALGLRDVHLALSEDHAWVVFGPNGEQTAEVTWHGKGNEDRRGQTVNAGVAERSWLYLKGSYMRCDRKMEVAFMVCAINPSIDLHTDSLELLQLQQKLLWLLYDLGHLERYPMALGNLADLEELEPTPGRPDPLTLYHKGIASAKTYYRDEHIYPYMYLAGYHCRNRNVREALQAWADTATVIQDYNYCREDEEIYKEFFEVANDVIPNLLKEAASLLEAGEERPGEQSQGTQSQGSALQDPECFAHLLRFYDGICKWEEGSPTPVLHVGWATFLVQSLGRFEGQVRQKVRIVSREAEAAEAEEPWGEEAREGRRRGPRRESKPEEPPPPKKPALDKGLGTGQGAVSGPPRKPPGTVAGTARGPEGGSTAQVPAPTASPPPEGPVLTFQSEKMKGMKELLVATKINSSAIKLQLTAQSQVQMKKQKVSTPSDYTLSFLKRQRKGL
T1 sequence (Q03164 1-2718 partner limits assumed): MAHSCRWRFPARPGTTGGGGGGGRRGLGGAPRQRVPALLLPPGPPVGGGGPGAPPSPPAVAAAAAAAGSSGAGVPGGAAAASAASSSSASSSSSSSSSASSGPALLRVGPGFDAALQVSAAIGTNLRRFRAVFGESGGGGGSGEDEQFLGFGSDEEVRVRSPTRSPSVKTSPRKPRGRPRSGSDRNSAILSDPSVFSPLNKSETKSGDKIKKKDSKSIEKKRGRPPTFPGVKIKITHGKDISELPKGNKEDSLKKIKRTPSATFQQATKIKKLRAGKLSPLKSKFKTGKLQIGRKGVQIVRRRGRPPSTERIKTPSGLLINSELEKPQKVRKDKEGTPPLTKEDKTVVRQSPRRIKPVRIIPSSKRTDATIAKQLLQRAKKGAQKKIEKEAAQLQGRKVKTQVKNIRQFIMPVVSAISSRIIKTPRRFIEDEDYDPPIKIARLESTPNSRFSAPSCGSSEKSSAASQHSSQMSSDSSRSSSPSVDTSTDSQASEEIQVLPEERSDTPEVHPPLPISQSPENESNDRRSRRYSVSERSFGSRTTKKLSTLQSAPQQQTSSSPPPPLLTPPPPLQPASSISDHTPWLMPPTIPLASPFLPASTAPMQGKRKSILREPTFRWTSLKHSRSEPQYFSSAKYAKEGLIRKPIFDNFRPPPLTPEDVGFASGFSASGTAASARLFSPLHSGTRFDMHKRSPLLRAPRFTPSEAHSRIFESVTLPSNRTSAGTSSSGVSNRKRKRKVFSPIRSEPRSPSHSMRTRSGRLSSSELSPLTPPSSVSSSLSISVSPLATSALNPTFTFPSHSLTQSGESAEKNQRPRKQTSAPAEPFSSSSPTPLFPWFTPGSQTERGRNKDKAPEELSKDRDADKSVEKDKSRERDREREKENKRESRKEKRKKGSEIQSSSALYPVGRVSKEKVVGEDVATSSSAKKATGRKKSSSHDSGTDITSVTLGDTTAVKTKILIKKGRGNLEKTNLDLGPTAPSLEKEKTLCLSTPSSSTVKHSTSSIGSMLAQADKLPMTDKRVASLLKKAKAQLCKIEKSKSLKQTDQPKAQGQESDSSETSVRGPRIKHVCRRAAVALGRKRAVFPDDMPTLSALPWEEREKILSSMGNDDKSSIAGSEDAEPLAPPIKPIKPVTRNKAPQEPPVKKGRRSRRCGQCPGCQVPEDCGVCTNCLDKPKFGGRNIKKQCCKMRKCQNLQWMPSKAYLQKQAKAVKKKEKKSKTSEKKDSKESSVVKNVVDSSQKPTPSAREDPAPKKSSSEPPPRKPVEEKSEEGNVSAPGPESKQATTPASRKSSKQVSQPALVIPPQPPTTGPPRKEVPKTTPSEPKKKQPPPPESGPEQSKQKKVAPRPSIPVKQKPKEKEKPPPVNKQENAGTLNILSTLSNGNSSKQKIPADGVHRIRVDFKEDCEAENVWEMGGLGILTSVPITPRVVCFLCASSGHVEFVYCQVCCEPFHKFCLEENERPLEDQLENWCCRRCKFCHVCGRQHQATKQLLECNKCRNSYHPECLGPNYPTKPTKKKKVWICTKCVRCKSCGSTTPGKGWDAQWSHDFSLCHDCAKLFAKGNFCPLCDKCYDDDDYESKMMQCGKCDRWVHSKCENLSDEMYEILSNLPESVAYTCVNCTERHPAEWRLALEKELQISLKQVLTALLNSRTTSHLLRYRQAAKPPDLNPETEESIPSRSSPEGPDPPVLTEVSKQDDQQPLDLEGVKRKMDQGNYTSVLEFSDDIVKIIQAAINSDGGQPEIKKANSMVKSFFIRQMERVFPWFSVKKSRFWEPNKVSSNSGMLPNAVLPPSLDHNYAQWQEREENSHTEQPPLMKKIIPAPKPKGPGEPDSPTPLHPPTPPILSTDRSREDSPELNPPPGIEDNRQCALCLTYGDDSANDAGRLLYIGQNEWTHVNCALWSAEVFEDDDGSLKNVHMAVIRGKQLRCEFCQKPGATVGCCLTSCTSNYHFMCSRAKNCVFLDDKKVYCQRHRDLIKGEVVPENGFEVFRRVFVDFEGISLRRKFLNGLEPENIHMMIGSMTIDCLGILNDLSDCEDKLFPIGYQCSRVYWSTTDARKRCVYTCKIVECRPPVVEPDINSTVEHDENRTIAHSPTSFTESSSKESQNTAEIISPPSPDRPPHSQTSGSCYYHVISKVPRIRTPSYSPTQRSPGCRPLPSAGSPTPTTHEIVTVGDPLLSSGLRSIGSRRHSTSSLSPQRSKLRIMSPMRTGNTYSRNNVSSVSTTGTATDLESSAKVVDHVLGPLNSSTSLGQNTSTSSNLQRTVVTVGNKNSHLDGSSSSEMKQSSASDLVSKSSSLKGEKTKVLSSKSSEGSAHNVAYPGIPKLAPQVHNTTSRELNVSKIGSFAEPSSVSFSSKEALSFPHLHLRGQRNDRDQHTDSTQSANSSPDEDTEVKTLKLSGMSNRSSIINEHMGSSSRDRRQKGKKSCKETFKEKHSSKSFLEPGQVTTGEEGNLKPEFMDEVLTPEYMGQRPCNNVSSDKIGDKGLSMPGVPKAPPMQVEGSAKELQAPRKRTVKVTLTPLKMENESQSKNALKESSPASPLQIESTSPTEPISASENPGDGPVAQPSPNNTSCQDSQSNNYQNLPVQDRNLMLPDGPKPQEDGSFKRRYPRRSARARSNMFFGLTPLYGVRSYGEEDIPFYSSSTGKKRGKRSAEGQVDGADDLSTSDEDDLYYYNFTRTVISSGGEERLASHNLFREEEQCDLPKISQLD
T1 sequence (Q03164 2719-3969 partner limits assumed): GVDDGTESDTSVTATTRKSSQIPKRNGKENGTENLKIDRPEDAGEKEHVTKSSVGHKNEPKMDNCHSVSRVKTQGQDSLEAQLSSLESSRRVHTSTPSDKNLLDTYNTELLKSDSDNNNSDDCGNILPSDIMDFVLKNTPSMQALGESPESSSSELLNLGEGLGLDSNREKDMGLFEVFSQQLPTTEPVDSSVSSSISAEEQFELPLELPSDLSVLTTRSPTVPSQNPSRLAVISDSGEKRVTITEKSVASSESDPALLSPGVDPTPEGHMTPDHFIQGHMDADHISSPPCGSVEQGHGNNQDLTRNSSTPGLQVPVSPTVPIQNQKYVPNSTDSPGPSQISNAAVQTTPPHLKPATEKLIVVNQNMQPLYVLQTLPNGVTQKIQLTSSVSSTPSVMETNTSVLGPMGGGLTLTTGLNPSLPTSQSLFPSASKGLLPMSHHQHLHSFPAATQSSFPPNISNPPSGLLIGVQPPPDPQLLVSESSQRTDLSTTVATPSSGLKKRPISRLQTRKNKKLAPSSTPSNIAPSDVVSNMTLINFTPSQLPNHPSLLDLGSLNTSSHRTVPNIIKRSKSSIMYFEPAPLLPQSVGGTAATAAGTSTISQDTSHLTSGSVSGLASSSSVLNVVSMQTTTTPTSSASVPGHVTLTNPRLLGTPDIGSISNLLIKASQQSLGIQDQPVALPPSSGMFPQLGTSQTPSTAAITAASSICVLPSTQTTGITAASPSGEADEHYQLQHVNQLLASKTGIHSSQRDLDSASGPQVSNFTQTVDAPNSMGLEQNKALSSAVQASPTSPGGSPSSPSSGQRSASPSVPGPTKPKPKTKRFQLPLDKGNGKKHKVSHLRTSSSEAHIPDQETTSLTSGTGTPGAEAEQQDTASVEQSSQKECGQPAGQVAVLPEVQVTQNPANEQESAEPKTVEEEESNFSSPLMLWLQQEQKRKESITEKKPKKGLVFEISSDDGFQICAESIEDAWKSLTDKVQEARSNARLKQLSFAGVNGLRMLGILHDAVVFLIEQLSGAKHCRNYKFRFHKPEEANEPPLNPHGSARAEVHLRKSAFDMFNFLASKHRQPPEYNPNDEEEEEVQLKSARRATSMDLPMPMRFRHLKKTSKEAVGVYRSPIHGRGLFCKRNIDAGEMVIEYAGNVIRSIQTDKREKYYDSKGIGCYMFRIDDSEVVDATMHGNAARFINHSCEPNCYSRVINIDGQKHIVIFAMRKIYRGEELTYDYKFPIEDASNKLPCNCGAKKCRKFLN
Assay [2] has as its target T1, Menin/Histone-lysine N-methyltransferase MLL. Kind of assay: Inhibition of Menin-MLL protein-protein interaction (unknown origin) preincubated for 1 hr in presence of FLSN-MBM1 peptide followed by compound addition and measured after 1 hr by fluorescence polarization assay.

On to `CC(=O)N[C@@H](CO)C(=O)N[C@@H](C)C(=O)N[C@@H](CCCNC(=N)N)C(=O)N[C@@H](Cc1c[nH]c2ccccc12)C(=O)N[C@@H](CCCNC(=N)N)C(=O)N[C@@H](Cc1ccccc1)C(=O)N1CCC[C@H]1C(=O)N[C@@H](C)C(=O)N[C@@H](CCCNC(=N)N)C(=O)N1CCC[C@H]1C(=O)NCC(=O)N[C@H](C(N)=O)[C@@H](C)O`, for which the IC50 in assay [1] stood at 3590 nM; in assay [2], 84 nM.
With `CC(=O)N[C@@H](CO)C(=O)N[C@@H](C)C(=O)N[C@@H](CCCNC(=N)N)C(=O)N[C@@H](Cc1c[nH]c2ccccc12)C(=O)N[C@H]1C/C=C\C[C@@H](C(=O)N2CCC[C@H]2C(=O)N[C@@H](CCCNC(=N)N)C(N)=O)NC(=O)C2(CCC2)NC(=O)[C@@H]2CCCN2C(=O)[C@H](Cc2cccc(F)c2)NC1=O` (Ac-SARW[AllylGly][Phe(3-F)]P[Ac4c][AllylGly]PR-NH2; staple (Z) 5-9), the IC50 in assay [1] was 657 nM; in assay [2], 64 nM.
